Reference: PubChem BioAssay AID330 (DTP/NCI, 2004)
Several values for one entry are separate records, joined by “and”; a condition that tells them apart may be missing. Equal entries are not always repeated. Toxic doses and inconclusive results are not listed. The calls were made as follows: active = survival T/C of 150% or more; inactive = T/C below 125% in these data.

System: P388 leukemia ip, CD2F1 mice, survival T/C
Assay: NCI In Vivo Anticancer Drug Screen. Data for tumor model P388 Leukemia (intraperitoneal) in CD2F1 (CDF1) mice
Settings: endpoint: median survival time, higher = longer survival
Outline: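 Mice carrying the transplanted tumor received test compound or vehicle. Survival was recorded in each group, and the value is the treated-group measurement divided by that of the vehicle-treated control group.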

[1] = dose: 12.5 mg/kg/injection, schedule: Q01DX009 (ip), vehicle: saline
[2] = dose: 25.0 mg/kg/injection, schedule: Q01DX009 (ip), vehicle: saline
[3] = dose: 50.0 mg/kg/injection, schedule: Q01DX005 (ip), vehicle: saline with Tween-80
[4] = dose: 100.0 mg/kg/injection, schedule: Q01DX005 (ip), vehicle: saline with Tween-80
[5] = dose: 200.0 mg/kg/injection, schedule: Q01DX005 (ip), vehicle: saline with Tween-80
[6] = dose: 60.0 mg/kg/injection, schedule: Q01DX005 (ip), vehicle: saline with Tween-80
[7] = dose: 120.0 mg/kg/injection, schedule: Q01DX005 (ip), vehicle: saline with Tween-80
[8] = dose: 100.0 mg/kg/injection, schedule: Q01DX001 (ip), vehicle: Klucel (hydroxypropylcellulose) (HPC)

Measured: T/C

Oc1ccccc1C=NCCN1CC1.Oc1ccccc1C=NCCN1CC1.[Co+2]
inactive: dose: 4.7 mg/kg/injection, schedule: Q01DX009 (ip), vehicle: saline 103 % of control | dose: 9.4 mg/kg/injection, schedule: Q01DX009 (ip), vehicle: saline 102 % of control | dose: 18.8 mg/kg/injection, schedule: Q01DX009 (ip), vehicle: saline 100 % of control | dose: 37.5 mg/kg/injection, schedule: Q01DX009 (ip), vehicle: saline 100 % of control and 97 % of control

CN(C)c1ccc2nc(/C=N/NC(N)=S)ccc2c1
inactive: dose: 100.0 mg/kg/injection, schedule: Q04DX002 (ip), vehicle: distilled water + Tween-80 + alcohol 101 % of control | dose: 200.0 mg/kg/injection, schedule: Q04DX002 (ip), vehicle: distilled water + Tween-80 + alcohol 92 % of control

O=c1[nH]cc(N=Cc2ccccc2F)c(=O)[nH]1
inactive: dose: 50.0 mg/kg/injection, schedule: Q01DX009 (ip), vehicle: suspension in saline 92 % of control | dose: 100.0 mg/kg/injection, schedule: Q01DX009 (ip), vehicle: suspension in saline 100 % of control | dose: 200.0 mg/kg/injection, schedule: Q01DX009 (ip), vehicle: suspension in saline 96 % of control

COc1cc(-c2ccc(N=Nc3ccc4c(S(=O)(=O)O)cc(S(=O)(=O)O)c(N)c4c3O)c(OC)c2)ccc1N=Nc1ccc2c(S(=O)(=O)O)cc(S(=O)(=O)O)c(N)c2c1O
inactive: [1] 94 % of control | [2] 92 % of control

CCSC(C#N)C(C)=O (stereo not given)
inactive: [1] 106 % of control | [2] 97 % of control | dose: 50.0 mg/kg/injection, schedule: Q01DX009 (ip), vehicle: saline with Tween-80 100 % of control | dose: 50.0 mg/kg/injection, schedule: Q01DX009 (ip), vehicle: saline 100 % of control

CC(C)NC(=O)OCc1c(COC(=O)NC(C)C)c(S(C)(=O)=O)n2c1CCC2
inactive: dose: 25.0 mg/kg/injection, schedule: Q01DX005 (ip), vehicle: saline with Tween-80 89 % of control | [3] 86 % of control | [4] 88 % of control | [5] 91 % of control

c1ccc2c3c(ccc2c1)Oc1ccc2ccccc2c1C3CCC1c2c(ccc3ccccc23)Oc2ccc3ccccc3c21
inactive: [6] 96 % of control | [7] 95 % of control | dose: 240.0 mg/kg/injection, schedule: Q01DX005 (ip), vehicle: saline with Tween-80 86 % of control

NS(=O)(=O)c1ccc(N=CC2C(=O)N(c3ccccc3)N(c3ccccc3)C2=O)cc1
inactive: [8] 87 % of control | dose: 200.0 mg/kg/injection, schedule: Q01DX001 (ip), vehicle: Klucel (hydroxypropylcellulose) (HPC) 89 % of control | dose: 400.0 mg/kg/injection, schedule: Q01DX001 (ip), vehicle: Klucel (hydroxypropylcellulose) (HPC) 92 % of control

C[Si](C)(C)CCCNCCNCCC[Si](C)(C)C
inactive: [6] 100 % of control | [7] 100 % of control

C/C=C(\C)C(=O)N/N=C\c1cc(Cl)cc(Cl)c1O
inactive: dose: 12.5 mg/kg/injection, schedule: Q01DX009 (ip), vehicle: olive oil, sesame oil, peanut oil 106 % of control | dose: 25.0 mg/kg/injection, schedule: Q01DX009 (ip), vehicle: olive oil, sesame oil, peanut oil 98 % of control | dose: 50.0 mg/kg/injection, schedule: Q01DX009 (ip), vehicle: olive oil, sesame oil, peanut oil 106 % of control | dose: 100.0 mg/kg/injection, schedule: Q01DX009 (ip), vehicle: olive oil, sesame oil, peanut oil 102 % of control | dose: 200.0 mg/kg/injection, schedule: Q01DX009 (ip), vehicle: olive oil, sesame oil, peanut oil 96 % of control | dose: 400.0 mg/kg/injection, schedule: Q01DX009 (ip), vehicle: olive oil, sesame oil, peanut oil 93 % of control

C=C1CC2(CCC23CC(=C)C(=O)O3)OC1=O (stereo not given)
inactive: dose: 5.0 mg/kg/injection, schedule: Q01DX009 (ip), vehicle: Klucel (hydroxypropylcellulose) (HPC) 100 % of control | dose: 10.0 mg/kg/injection, schedule: Q01DX009 (ip), vehicle: Klucel (hydroxypropylcellulose) (HPC) 116 % of control | dose: 20.0 mg/kg/injection, schedule: Q01DX009 (ip), vehicle: Klucel (hydroxypropylcellulose) (HPC) 117 % of control

COC(=O)C(C/C(=C/NC(=O)c1ccccc1)NC(=O)c1ccccc1)NC(=O)c1ccccc1 (stereo not given)
inactive: [3] 98 % of control | [4] 98 % of control | [5] 100 % of control

COc1ccc2cc3cccc[n+]3cc2c1
inactive: dose: 0.19 mg/kg/injection, schedule: Q01DX005 (ip), vehicle: Klucel (hydroxypropylcellulose) (HPC) 100 % of control | dose: 0.39 mg/kg/injection, schedule: Q01DX005 (ip), vehicle: Klucel (hydroxypropylcellulose) (HPC) 110 % of control | dose: 0.78 mg/kg/injection, schedule: Q01DX005 (ip), vehicle: Klucel (hydroxypropylcellulose) (HPC) 108 % of control and 97 % of control

O=C(/C=C/c1cccnc1)/C=C/c1cccnc1
inactive: dose: 6.25 mg/kg/injection, schedule: Q01DX009 (ip), vehicle: Klucel (hydroxypropylcellulose) (HPC) 122 % of control | dose: 12.5 mg/kg/injection, schedule: Q01DX009 (ip), vehicle: Klucel (hydroxypropylcellulose) (HPC) 124 % of control | dose: 25.0 mg/kg/injection, schedule: Q01DX009 (ip), vehicle: Klucel (hydroxypropylcellulose) (HPC) 124 % of control | dose: 50.0 mg/kg/injection, schedule: Q01DX009 (ip), vehicle: Klucel (hydroxypropylcellulose) (HPC) 120 % of control

CC(C)OSc1ccccc1
inactive: dose: 12.5 mg/kg/injection, schedule: Q01DX001 (ip), vehicle: Klucel (hydroxypropylcellulose) (HPC) 113 % of control | dose: 25.0 mg/kg/injection, schedule: Q01DX001 (ip), vehicle: Klucel (hydroxypropylcellulose) (HPC) 113 % of control | dose: 50.0 mg/kg/injection, schedule: Q01DX001 (ip), vehicle: Klucel (hydroxypropylcellulose) (HPC) 102 % of control | [8] 103 % of control and 107 % of control and 97 % of control
